Data reported in patent US7820196B2, “Physiologically active agents containing vicinal dithioglycols and use thereof in various branches of economy” (priority 1999, dated 2010).

How the values were obtained:
broilers = test: Example 5: broilers fed basic ration plus Unithiol; type: in vivo
Method: A full-ration mixed-fodder was checked for the absence of pathogens and used for feeding broilers. Thirty 15 days broilers were divided into one control and 4 experimental groups having 6 chickens each (3 male and 3 female chickens). Poultry were kept in a four-deck pen. The conditions of feeding such as the basic ration (BR) and the addition of Unithiol according to the protocol were as follows:
Experimental group 1: BR+1.3 mg of “Unithiol” per 1 kg of the body weight;
Experimental group 2: BR+1.7 mg of “Unithiol” per 1 kg of the body weight;
Experimental group 3: BR+2.1 mg of “Unithiol” per 1 kg of the body weight;
Experimental group 4: BR+2.5 mg of “Unithiol” per 1 kg of the body weight.
Feeding was performed in accordance with experimental protocol; broilers received water ad libitum; the experiment was carried out for 42 days.

broiler chickens = test: Example 6: effect of unithiol on accumulation of heavy metal compounds in tissues of poultry; type: in vivo
Method: An experiment was conducted, on the inventors' initiative, on the experimental base of the All-Russia research and technological institute for aviculture (VNITIP) during which a study was given to the following tasks: • determination of an effect produced by unithiol (DMPS) on the productivity and meat quality of broiler chickens; • effect produced by unithiol on the accumulation of heavy metal compounds (mercury, cadmium, lead) in various tissues of poultry.
The experiment was carried out in a vivarium on broiler chickens of one cross. Poultry was grown in cell batteries from one day to six-week age. The operating parameters and feeding level met the recommendation VNITIP 1999. The experiment was conducted according to the diagram on Table 1.
The poultry population: 1 and 2 groups, 35 heads each; 3,4,5 groups—6 heads each.
13. Contained heavy metal residual compounds (mercury, cadmium, lead) in mixed feed for the broilers.
14. Evaluation of the level of meat contamination and internal organs (liver and kidneys) of the broilers with heavy metal salts.

[1] = about 1.7 mg Unithiol per 1 kg of body weight in ration
[2] = Group 2: BR + 17 mg unithiol/kg feed days 15-42
[3] = Group 4: BR + heavy metals + 17 mg unithiol/kg feed, both days 15-42
[4] = Group 5: BR + heavy metals days 15-35, 34 mg unithiol/kg feed days 36-42

O=S(=O)([O-])CC(S)CS.[Na+] (stereo not shown) [Unithiol, Sodium 2,3-Dimercaptopropane sulfonate]
feathering condition (broilers; Unithiol in ration): Feathering condition improvement
fodder consumption (broilers; Unithiol in ration): increased fodder consumption
average weight gain (broilers; [1]): up to 35.8 g per day
gain rate, % from that in the control group (broilers; [1]): 145.9%
growth stimulating effect (broilers; about 1.7 mg per 1 kg of body weight in ration, beginning from the 15th day): growth stimulating effect
level of cadmium, zinc, lead and copper in meat and liver, lower than control group (broilers; experimental groups, 1.3-2.5 mg Unithiol per kg body weight): about 1.5 times
Heavy metal content: cadmium, kidneys (broiler chickens; [2]): 0.078 mg/kg
Heavy metal content: cadmium, liver (broiler chickens; [2]): 0.049 mg/kg
Heavy metal content: lead, kidneys (broiler chickens; [2]): 0.67 mg/kg
Heavy metal content: lead, liver (broiler chickens; [2]): 0.40 mg/kg
Heavy metal content: mercury, kidneys (broiler chickens; [2]): 0.055 mg/kg
Heavy metal content: mercury, liver (broiler chickens; [2]): 0.039 mg/kg
Heavy metal content: zinc, kidneys (broiler chickens; [2]): 95.3 mg/kg
Heavy metal content: zinc, liver (broiler chickens; [2]): 104.1 mg/kg
Heavy metal content: zinc, muscular tissue (broiler chickens; [2]): 50.2 mg/kg
Heavy metal content: cadmium, kidneys (broiler chickens; [3]): 3.76 mg/kg
Heavy metal content: cadmium, liver (broiler chickens; [3]): 2.98 mg/kg
Heavy metal content: cadmium, muscular tissue (broiler chickens; [3]): 0.37 mg/kg
Heavy metal content: lead, kidneys (broiler chickens; [3]): 8.50 mg/kg
Heavy metal content: lead, liver (broiler chickens; [3]): 4.80 mg/kg
Heavy metal content: lead, muscular tissue (broiler chickens; [3]): 0.83 mg/kg
Heavy metal content: mercury, kidneys (broiler chickens; [3]): 2.00 mg/kg
Heavy metal content: mercury, liver (broiler chickens; [3]): 2.18 mg/kg
Heavy metal content: mercury, muscular tissue (broiler chickens; [3]): 0.375 mg/kg
Heavy metal content: zinc, kidneys (broiler chickens; [3]): 103.1 mg/kg
Heavy metal content: zinc, liver (broiler chickens; [3]): 107.2 mg/kg
Heavy metal content: zinc, muscular tissue (broiler chickens; [3]): 50.4 mg/kg
Heavy metal content: cadmium, kidneys (broiler chickens; [4]): 2.97 mg/kg
Heavy metal content: cadmium, liver (broiler chickens; [4]): 2.30 mg/kg
Heavy metal content: cadmium, muscular tissue (broiler chickens; [4]): 0.24 mg/kg
Heavy metal content: lead, kidneys (broiler chickens; [4]): 7.00 mg/kg
Heavy metal content: lead, liver (broiler chickens; [4]): 3.40 mg/kg
Heavy metal content: lead, muscular tissue (broiler chickens; [4]): 0.54 mg/kg
Heavy metal content: mercury, kidneys (broiler chickens; [4]): 1.05 mg/kg
Heavy metal content: mercury, liver (broiler chickens; [4]): 1.12 mg/kg
Heavy metal content: mercury, muscular tissue (broiler chickens; [4]): 0.328 mg/kg
Heavy metal content: zinc, kidneys (broiler chickens; [4]): 98.2 mg/kg
Heavy metal content: zinc, liver (broiler chickens; [4]): 104.3 mg/kg
Heavy metal content: zinc, muscular tissue (broiler chickens; [4]): 50.3 mg/kg
heavy metal salt content in the depositing organs and meat (broiler chickens; use of unithiol): considerably reduce a heavy metal salt content
